In ChEMBL document CHEMBL5331114, “Discovery of Pyxinol Amide Derivatives Bearing Amino Acid Residues as Nonsubstrate Allosteric Inhibitors of P-Glycoprotein-Mediated Multidrug Resistance” (J Med Chem, 2023):

Key:
[1] = Cytotoxicity against human KBV Cells assessed as cell survival rate at 10 uM incubated for 72 hrs by MTT assay; type: functional; conditions: read-out: Survival
[2] = Reversal of multidrug resistance in human KBV Cells assessed as increase in PTX-induced cytotoxicity by measuring cell survival rate at 10 uM incubated for 72 hrs in presence of paclitaxel by MTT assay relative to control; type: functional; conditions: read-out: Survival
[3] = Reversal of multidrug resistance in human KBV Cells assessed as increase in PTX-induced cytotoxicity by measuring cell survival rate at 5 uM incubated for 72 hrs in presence of paclitaxel by MTT assay relative to control; type: functional; conditions: read-out: Survival
[4] = Reversal of multidrug resistance in human KBV Cells assessed as reversal fold of paclitaxel IC50 at 5 uM incubated for 72 hrs in presence of paclitaxel by MTT assay; type: functional
[5] = Reversal of multidrug resistance in human KBV Cells assessed as reversal fold of paclitaxel IC50 at 10 uM incubated for 72 hrs in presence of paclitaxel by MTT assay; type: functional
[6] = Induction of cell cycle arrest in human KBV cells assessed as accumulation of cells at Sub-G1 phase at 10 uM incubated for 24 hrs by flow cytometry analysis (reference value: 1.24 +/- 0.14%); type: functional
[7] = Induction of cell cycle arrest in human KBV cells assessed as accumulation of cells at G1-G0 phase at 10 uM incubated for 24 hrs by flow cytometry analysis (reference value: 62.34 +/- 0.24%); type: functional
[8] = Induction of cell cycle arrest in human KBV cells assessed as accumulation of cells at S phase at 10 uM incubated for 24 hrs by flow cytometry analysis (reference value: 12.42 +/- 0.41%); type: functional
[9] = Induction of cell cycle arrest in human KBV cells assessed as accumulation of cells at G2-M phase at 10 uM incubated for 24 hrs by flow cytometry analysis (reference value: 24.94 +/- 0.21%); type: functional
[10] = Induction of Ptx-mediated cell cycle arrest in human KBV cells assessed as accumulation of cells at Sub-G1 phase at 10 uM incubated for 24 hrs in presence of paclitaxel by flow cytometry analysis (reference value: 1.21 +/- 0.3%); type: functional
[11] = Induction of Ptx-mediated cell cycle arrest in human KBV cells assessed as accumulation of cells at G1-G0 phase at 10 uM incubated for 24 hrs in presence of paclitaxel by flow cytometry analysis (Rvb =57.76 +/- 0.78%); type: functional
[12] = Induction of Ptx-mediated cell cycle arrest in human KBV cells assessed as accumulation of cells at S phase at 10 uM incubated for 24 hrs in presence of paclitaxel by flow cytometry analysis (Rvb =16.63 +/- 0.4%); type: functional
[13] = Induction of Ptx-mediated cell cycle arrest in human KBV cells assessed as accumulation of cells at G2-M phase at 10 uM incubated for 24 hrs in presence of paclitaxel by flow cytometry analysis (Rvb =25.34 +/- 0.92%); type: functional
[14] = Drug accumulation in human KB cells at 10 uM incubated for 4 hrs by LC-MS/MS analysis; type: ADME, cell-based
[15] = Drug accumulation in human KBV cells at 10 uM incubated for 4 hrs by LC-MS/MS analysis; type: ADME, cell-based

SMILES: CC(C)(C)OC(=O)N[C@@H](Cc1ccccc1)C(=O)N[C@H]1CC[C@]2(C)[C@H]3C[C@@H](O)[C@@H]4[C@@H]([C@]5(C)CC[C@@H](C(C)(C)O)O5)CC[C@@]4(C)[C@]3(C)CC[C@H]2C1(C)C
- viability at 10 µM [1]: 102%
- viability at 10 µM [2]: 24%
- viability at 5 µM [3]: 31%
- fold change (FC) [4]: 21
- fold change (FC) [5]: 49

SMILES: COc1ccc(CCN(C)CCCC(C#N)(c2ccc(OC)c(OC)c2)C(C)C)cc1OC (stereo not drawn)
- viability at 10 µM [2]: 41%
- Activity [6]: 1.07%
- Activity [7]: 58.36%
- Activity [8]: 14.59%
- Activity [9]: 26.78%
- Activity [10]: 8.56%
- Activity [11]: 39.76%
- Activity [12]: 21.71%
- Activity [13]: 37.67%

SMILES: CC(C)(C)OC(=O)C[C@H](NC(=O)OC(C)(C)C)C(=O)N[C@H]1CC[C@]2(C)[C@H]3C[C@@H](O)[C@@H]4[C@@H]([C@]5(C)CC[C@@H](C(C)(C)O)O5)CC[C@@]4(C)[C@]3(C)CC[C@H]2C1(C)C
- viability at 10 µM [1]: 94%
- viability at 10 µM [2]: 28%
- viability at 5 µM [3]: 33%
- fold change (FC) [4]: 61
- fold change (FC) [5]: 130
- Drug uptake [14]: Not Active
- Drug uptake [15]: Not Active

SMILES: COc1cc2c(cc1OC)CN(CCc1ccc(NC(=O)c3cc(OC)c(OC)cc3NC(=O)c3cnc4ccccc4c3)cc1)CC2
- fold change (FC) [4]: 113
- fold change (FC) [5]: 150

SMILES: CC(C)[C@H](N)C(=O)N[C@H]1CC[C@]2(C)[C@H]3C[C@@H](O)[C@@H]4[C@@H]([C@]5(C)CC[C@H](C(C)(C)O)O5)CC[C@@]4(C)[C@]3(C)CC[C@H]2C1(C)C
- viability at 10 µM [1]: 74%
- viability at 10 µM [2]: 32%
- viability at 5 µM [3]: 34%
- fold change (FC) [4]: 36
- fold change (FC) [5]: 46

SMILES: CC(C)(C)OC(=O)N[C@@H](Cc1ccccc1)C(=O)N[C@H]1CC[C@]2(C)[C@H]3C[C@@H](O)[C@@H]4[C@@H]([C@]5(C)CC[C@H](C(C)(C)O)O5)CC[C@@]4(C)[C@]3(C)CC[C@H]2C1(C)C
- viability at 10 µM [1]: 104%
- viability at 10 µM [2]: 24%
- viability at 5 µM [3]: 30%
- fold change (FC) [4]: 22
- fold change (FC) [5]: 82

SMILES: CC(C)(C)OC(=O)N[C@@H](Cc1ccc(OC(C)(C)C)cc1)C(=O)N[C@H]1CC[C@]2(C)[C@H]3C[C@@H](O)[C@@H]4[C@@H]([C@]5(C)CC[C@@H](C(C)(C)O)O5)CC[C@@]4(C)[C@]3(C)CC[C@H]2C1(C)C
- viability at 10 µM [1]: 85%
- viability at 10 µM [2]: 19%
- viability at 5 µM [3]: 30%
- fold change (FC) [4]: 35
- fold change (FC) [5]: 209
- Drug uptake [14]: Not Active
- Drug uptake [15]: Not Active

SMILES: CC(C)(O)[C@H]1CC[C@@](C)([C@H]2CC[C@]3(C)[C@@H]2[C@H](O)C[C@@H]2[C@@]4(C)CC[C@H](NC(=O)[C@@H](N)Cc5ccccc5)C(C)(C)[C@@H]4CC[C@]23C)O1
- viability at 10 µM [1]: 85%
- viability at 10 µM [2]: 29%
- viability at 5 µM [3]: 33%
- fold change (FC) [4]: 56
- fold change (FC) [5]: 321

SMILES: CC(C)(C)OC(=O)NCCCCCC(=O)N[C@H]1CC[C@]2(C)[C@H]3C[C@@H](O)[C@@H]4C([C@]5(C)CC[C@H](C(C)(C)O)O5)CC[C@@]4(C)[C@]3(C)CC[C@H]2C1(C)C (stereo partly drawn)
- viability at 10 µM [1]: 98%
- viability at 10 µM [2]: 36%
- viability at 5 µM [3]: 44%
- Drug uptake [14]: Not Active
- Drug uptake [15]: Not Active

SMILES: CC(C)(C)OC(=O)N1CCC[C@H]1C(=O)O[C@H]1CC[C@]2(C)[C@H]3C[C@@H](O)[C@@H]4[C@@H]([C@]5(C)CC[C@@H](C(C)(C)O)O5)CC[C@@]4(C)[C@]3(C)CC[C@H]2C1(C)C
- viability at 10 µM [1]: 103%
- viability at 10 µM [2]: 35%
- viability at 5 µM [3]: 66%
